In patent US5912247A, “Quinazoline compound and anti-tumor agent containing said compound as an active ingredient” (Kanebo, Ltd., priority 1995, dated 1999):
Structures can show the parent of a compound that is named as a salt.

Tested on: Colon 26 solid tumor
Assay: Inhibitory activity of dye accumulation in the solid tumor tissue (inhibition of the tumor blood flow)
Format: in vivo, Male BALB/c mice
Design: key to Inhibitory activity of dye accumulation into solid tumor: +: The average absorbance in the test group is significantly smaller than the average absorbance in the control group.; -: There is no significant difference in the average absorbance between the test group and the control group
Conditions: intravenous, Evans blue 1 hour after administration
Method: Inhibitory activity of dye accumulation in the solid tumor tissue (inhibition of the tumor blood flow): a) Materials: Test Animal: Male BALB/c mice (weighing 21-27 g, six mice per group) Tumor: Colon 26 solid tumor b) Test Method: Colon 26 solid tumor was cut in a size of about 1 mm square. The pieces of solid tumor were treated with a 0.25% collagenase solution and 0.02% deoxyribonuclease solution at 37° C. for 1.5 hour to give a cell suspension of colon 26 solid tumor cells. The cell suspension was adjusted to 3×10^6 cells/ml and the cell suspension (100 μl) was subcutaneously inoculated on the right back of male BALB/c mice. Ten days after the transplantation, the longitudinal size of the tumor was measured, and when the longitudinal size of the tumor reached about 10 mm, the mice were randomized. To the mice in test groups, the test compound was intravenously administered in an amount of 10 mg/kg or 1.25 mg/kg. The test compound was administered in the form of a solution in saline (in the test solution of Test Compound BF and BK, an equimolar amount of fumaric acid was further added, and in the test solution of Test Compound BN, an equimolar amount of hydrochloric acid was further added). To the mice in the control group, only saline was administered intravenously. One hour after the administration, 3% Evans blue-saline solution was injected intravenously via the tail vein of the mice in a volume of 0.1 ml per 10 g of the body weight of mouse, and 5 minutes later the mice were killed by luxation of the cervical vertebrae. After removing the tumor, the tumor was weighed. To extract Evans blue, the tumor was suspensed in 0.5% aqueous sodium sulfate (1.5 ml per 1 g of the tumor) and acetone (3.5 ml per 1 g of tumor), and then the tumor was cut into small pieces. After allowing to stand at room temperature overnight, the suspension were centrifuged at 3,000 rpm for 10 minutes to extract Evans blue, and the absorbance of the supernatant was read at 630 nm. […] (-): There is no significant difference in the average absorbance between the test group and the control group.

Row | SMILES | Inhibitory activity of dye accumulation into solid tumor (1.25 mg/kg) | Inhibitory activity of dye accumulation into solid tumor (10 mg/kg)
1 | CC(=O)O.OCC(O)COc1nc(N2CCNCC2)nc2ccccc12 (racemic) [Compound BB, 4-[(RS)-(2,3-Dihydroxypropyl)oxy]-2-(1-piperazinyl)quinazoline monoacetate] | + | +
2 | CC(=O)O.C[C@H](O)[C@@H](C)Oc1nc(N2CCNCC2)nc2ccccc12 (racemic) [Compound BC, 4-[(2RS,3SR)-(3-Hydroxybutan-2-yl)oxy]-2-(1-piperazinyl)quinazoline monoacetate] | + | +
3 | C[C@@H](O)[C@H](O)COc1nc(N2CCNCC2)nc2ccccc12 (racemic) [Compound BF, 4-[(2RS,3RS)-(2,3-Dihydroxybutan-1-yl)oxy]-2-(1-piperazinyl)quinazoline] | + | +
4 | OC[C@H](O)[C@H](O)COc1nc(N2CCNCC2)nc2ccccc12 (racemic) [Compound BK, 4-[(2RS,3SR)-(2,3,4-Trihydroxybutan-1-yl)oxy]-2-(1-piperazinyl)quinazoline] | + | +
5 | CC(=O)O.O[C@@H]1CCC[C@H]1Oc1nc(N2CCNCC2)nc2ccccc12 (relative stereo) [Compound AA, 4-[trans-(2-Hydroxycyclopentan-1-yl)oxy]-2-(1-piperazinyl)quinazoline monoacetate] | + | +
6 | CC(=O)O.O[C@H]1CCC[C@H]1Oc1nc(N2CCNCC2)nc2ccccc12 (relative stereo) [Compound AB, 4-[cis-(2-Hydroxycyclopentan-1-yl)oxy]-2-(1-piperazinyl)quinazoline monoacetate] | - | +
7 | CC(=O)O.O[C@@H]1COC[C@H]1Oc1nc(N2CCNCC2)nc2ccccc12 (relative stereo) [Compound AF, 4-[trans-(4-Hydroxytetrahydrofuran-3-yl)oxy]-2-(1-piperazinyl)quinazoline monoacetate] | + | +
8 | O[C@@H]1COC[C@@H]1Oc1nc(N2CCNCC2)nc2ccccc12 (relative stereo) [Compound AG, 4-[cis-(4-Hydroxytetrahydrofuran-3-yl)oxy]-2-(1-piperazinyl)quinazolinemonoacetate] | + | +
9 | O[C@@H]1[C@@H](Oc2nc(N3CCNCC3)nc3ccccc23)CC[C@@H]1O (relative stereo) [Compound AL, 4-[(t-2,t-3-Dihydroxycyclopentan-r-1-yl)oxy]-2-(1-piperazinyl)quinazoline monoacetate] | + | +
10 | O[C@@H]1[C@H](O)[C@@H](Oc2nc(N3CCNCC3)nc3ccccc23)C[C@H]1O (relative stereo) [Compound AO, 4-[(t-2,t-3,c-4-Trihydroxycyclopentan-r-1-yl)-oxy]-2-(1-piperazinyl)quinazoline 1/2 fumarate] | + | +
11 | CC(=O)O.OC1CCC(Oc2nc(N3CCNCC3)nc3ccccc23)C1 (stereo not drawn) [Compound AC, 4-[(3-Hydroxycyclopentan-1-yl)oxy]-2-(1-piperazinyl)quinazoline monoacetate] | + | +
12 | O[C@H]1CCC[C@@H]1Oc1nc(N2CCNCC2)nc2ccccc12 [Compound AD, 4-[(1S,2S)-(2-Hydroxycyclopentan-1-yl)oxy]-2-(1-piperazinyl)quinazolinemonoacetate] | + | +
13 | O[C@@H]1CCC[C@H]1Oc1nc(N2CCNCC2)nc2ccccc12 [Compound AE, 4-[(1R,2R)-(2-Hydroxycyclopentan-1-yl)oxy]-2-(1-piperazinyl)quinazolinemonoacetate] | + | +
14 | CC(=O)O.O[C@H]1COC[C@@H]1Oc1nc(N2CCNCC2)nc2ccccc12 [Compound AH, 4-[(3S,4S)-(4-Hydroxytetrahydrofuran-3-yl)oxy]-2-(1-piperazinyl)quinazoline monoacetate] | + | +
15 | O[C@@H]1COC[C@H]1Oc1nc(N2CCNCC2)nc2ccccc12 [Compound AJ, 4-[(3R,4R)-(4-Hydroxytetrahydrofuran-3-yl)-oxy]-2-(1-piperazinyl)quinazoline 1/2 hydrochloride] | + | +
16 | Cl.O[C@@H]1COC[C@H]1Oc1nc(N2CCNCC2)nc2ccccc12 [Compound AK, 4-[(3R,4R)-(4-Hydroxytetrahydrofuran-3-yl)-oxy]-2-(1-piperazinyl)quinazoline monohydrochloride] | + | +
17 | O[C@@H]1C[C@H](Oc2nc(N3CCNCC3)nc3ccccc23)C[C@@H]1O [Compound AN, 4-[(c-3,c-4-Dihydroxycyclopentan-r-1-yl)oxy]-2-(1-piperazinyl)quinazoline monohydrochloride] | + | +
18 | O[C@@H]1[C@H](O)[C@@H](Oc2nc(N3CCNCC3)nc3ccccc23)C[C@H]1O [Compound AP, 4-[(1S,2S,3S,4R)-(2,3,4-Trihydroxycyclopentan-1-yl)oxy]-2-(1-piperazinyl)quinazoline 1/2 fumarate] | + | +
19 | O[C@@H]1[C@H](O)[C@@H](O)C[C@H]1Oc1nc(N2CCNCC2)nc2ccccc12 [Compound AQ, 4-[(1R,2R,3R,4S)-(2,3,4-Trihydroxycyclopentan-1-yl)oxy]-2-(1-piperazinyl)quinazoline 1/2 fumarate] | + | +
20 | CO[C@@H]1C[C@H](Oc2nc(N3CCNCC3)nc3ccccc23)[C@@H](O)[C@H]1O [Compound AR, 4-[(1S,2S,3R,4R)-(2,3-Dihydroxy-4-methoxy-cyclopentan-1-yl)oxy]-2-(1-piperazinyl)quinazoline 1/2 fumarate] | + | +
21 | CO[C@H]1C[C@@H](Oc2nc(N3CCNCC3)nc3ccccc23)[C@H](O)[C@@H]1O [Compound AS, 4-[(1R,2R,3S,4S)-(2,3-Dihydroxy-4-methoxy-cyclopentan-1-yl)oxy]-2-(1-piperazinyl)quinazoline 1/2 fumarate] | + | +
22 | CO[C@H]1C[C@@H](Oc2nc(N3CCNCC3)nc3ccccc23)[C@H](O)[C@@H]1O.Cl [Compound AT, 4-[(1R,2R,3S,4S)-(2,3-Dihydroxy-4-methoxy-cyclopentan-1-yl)oxy]-2-(1-piperazinyl)quinazoline mono-hydrochloride] | + | +
23 | CC(=O)O.OCCOc1nc(N2CCNCC2)nc2ccccc12 [Compound BA, 4-[(2-Hydroxyethyl)oxy]-2-(1-piperazinyl)-quinazoline monoacetate] | + | +
24 | CC(=O)O.C[C@H](O)[C@H](C)Oc1nc(N2CCNCC2)nc2ccccc12 [Compound BD, 4-[(2S,3S)-(3-Hydroxybutan-2-yl)oxy]-2-(1-piperazinyl)quinazoline monoacetate] |  | +
25 | CC(=O)O.C[C@@H](O)[C@@H](C)Oc1nc(N2CCNCC2)nc2ccccc12 [Compound BE, 4-[(2R,3R)-(3-Hydroxybutan-2-yl)oxy]-2-(1-piperazinyl)quinazoline monoacetate] |  | +
